{"source": "patent US5061689A", "about": "“Zinc bacitracin containing wound dressing” (Bioderm, Inc., priority 1986, dated 1991)", "system": "partial thickness wounds", "assay": "Topically applied bacitracin zinc 3% to 9%, healing of partial thickness wounds (Example III)", "assay_type": "in vivo, white Yorkshire pigs", "source_text": "To test the effect of bacitracin zinc on epidermal resurfacing, approximately 60 rectangular wounds measuring 7 mm wide, 10 mm long, and 0.5 mm deep were made in each of eighteen white Yorkshire pigs in the paravertebral and thoracic areas with a Castroviejo keratome. The electrokeratome was fitted with a razor blade modified so that the cutting edge was reduced to 7 mm. The wounds were separated from one another by at least 15 mm of normal skin. The bacitracin zinc was applied in impregnated foam shortly (within 5 minutes) after wounding on day 0 and once daily thereafter for 7 days. In order to rule out the possibility that wounds made in different anatomical regions heal at different rates the regions used for each treatment group varied for each animal. Two days after wounding and each day thereafter some of the wounds with surrounding normal skin were excised from each treatment group. The excisions were made with a Castroviejo keratome fitted with a 22 mm blade, set to cut at a depth of 0.7 mm. After incubating the specimens in 2N sodium bromide at 37° C. for three hours, the epidermis was separated from the dermis and the epidermal sheet (22 sq mm) was assessed for re-epithelialization as previously described. Briefly, this method is a macroscopic examination of the separated epidermis for defects. Defects are visualized as holes in the separated epidermal sheet or as a lack of epidermal continuum in the area that contain the wound. The wound is considered re-epithelialized if there are no defects in the epidermis and not re-epithelialized if there are one or more defects. To more accurately assess the effective range of bacitracin concentrations,bacitracin zinc containing ointments were prepared with concentrations ranging from 3% to 9%. The methodology employed was substantially the same as in Example I.", "data": [{"substance": "bacitracin zinc", "values": [{"measurement": "% of wounds healed", "setting": "3.0% bacitracin zinc, day 2 after wounding", "result": 0, "unit": "%"}, {"measurement": "% of wounds healed", "setting": "3.0% bacitracin zinc, day 3 after wounding", "result": 0, "unit": "%"}, {"measurement": "% of wounds healed", "setting": "3.0% bacitracin zinc, day 4 after wounding", "result": 33, "unit": "%"}, {"measurement": "% of wounds healed", "setting": "3.0% bacitracin zinc, day 5 after wounding", "result": 55, "unit": "%"}, {"measurement": "% of wounds healed", "setting": "3.0% bacitracin zinc, day 6 after wounding", "result": 90, "unit": "%"}, {"measurement": "% of wounds healed", "setting": "3.0% bacitracin zinc, day 7 after wounding", "result": 100, "unit": "%"}, {"measurement": "% of wounds healed", "setting": "4.0% bacitracin zinc, day 2 after wounding", "result": 0, "unit": "%"}, {"measurement": "% of wounds healed", "setting": "4.0% bacitracin zinc, day 3 after wounding", "result": 5, "unit": "%"}, {"measurement": "% of wounds healed", "setting": "4.0% bacitracin zinc, day 4 after wounding", "result": 45, "unit": "%"}, {"measurement": "% of wounds healed", "setting": "4.0% bacitracin zinc, day 5 after wounding", "result": 60, "unit": "%"}, {"measurement": "% of wounds healed", "setting": "4.0% bacitracin zinc, day 6 after wounding", "result": 96, "unit": "%"}, {"measurement": "% of wounds healed", "setting": "4.0% bacitracin zinc, day 7 after wounding", "result": 100, "unit": "%"}, {"measurement": "% of wounds healed", "setting": "5.0% bacitracin zinc, day 2 after wounding", "result": 0, "unit": "%"}, {"measurement": "% of wounds healed", "setting": "5.0% bacitracin zinc, day 3 after wounding", "result": 9, "unit": "%"}, {"measurement": "% of wounds healed", "setting": "5.0% bacitracin zinc, day 4 after wounding", "result": 48, "unit": "%"}, {"measurement": "% of wounds healed", "setting": "5.0% bacitracin zinc, day 5 after wounding", "result": 71, "unit": "%"}, {"measurement": "% of wounds healed", "setting": "5.0% bacitracin zinc, day 6 after wounding", "result": 95, "unit": "%"}, {"measurement": "% of wounds healed", "setting": "5.0% bacitracin zinc, day 7 after wounding", "result": 100, "unit": "%"}, {"measurement": "% of wounds healed", "setting": "5.5% bacitracin zinc, day 2 after wounding", "result": 0, "unit": "%"}, {"measurement": "% of wounds healed", "setting": "5.5% bacitracin zinc, day 3 after wounding", "result": 15, "unit": "%"}, {"measurement": "% of wounds healed", "setting": "5.5% bacitracin zinc, day 4 after wounding", "result": 55, "unit": "%"}, {"measurement": "% of wounds healed", "setting": "5.5% bacitracin zinc, day 5 after wounding", "result": 75, "unit": "%"}, {"measurement": "% of wounds healed", "setting": "5.5% bacitracin zinc, day 6 after wounding", "result": 98, "unit": "%"}, {"measurement": "% of wounds healed", "setting": "5.5% bacitracin zinc, day 7 after wounding", "result": 100, "unit": "%"}, {"measurement": "% of wounds healed", "setting": "6.0% bacitracin zinc, day 2 after wounding", "result": 0, "unit": "%"}, {"measurement": "% of wounds healed", "setting": "6.0% bacitracin zinc, day 3 after wounding", "result": 20, "unit": "%"}, {"measurement": "% of wounds healed", "setting": "6.0% bacitracin zinc, day 4 after wounding", "result": 59, "unit": "%"}, {"measurement": "% of wounds healed", "setting": "6.0% bacitracin zinc, day 5 after wounding", "result": 78, "unit": "%"}, {"measurement": "% of wounds healed", "setting": "6.0% bacitracin zinc, day 6 after wounding", "result": 98, "unit": "%"}, {"measurement": "% of wounds healed", "setting": "6.0% bacitracin zinc, day 7 after wounding", "result": 100, "unit": "%"}, {"measurement": "% of wounds healed", "setting": "6.5% bacitracin zinc, day 2 after wounding", "result": 0, "unit": "%"}, {"measurement": "% of wounds healed", "setting": "6.5% bacitracin zinc, day 3 after wounding", "result": 33, "unit": "%"}, {"measurement": "% of wounds healed", "setting": "6.5% bacitracin zinc, day 4 after wounding", "result": 65, "unit": "%"}, {"measurement": "% of wounds healed", "setting": "6.5% bacitracin zinc, day 5 after wounding", "result": 88, "unit": "%"}, {"measurement": "% of wounds healed", "setting": "6.5% bacitracin zinc, day 6 after wounding", "result": 100, "unit": "%"}, {"measurement": "% of wounds healed", "setting": "6.5% bacitracin zinc, day 7 after wounding", "result": 100, "unit": "%"}, {"measurement": "% of wounds healed", "setting": "7.0% bacitracin zinc, day 2 after wounding", "result": 0, "unit": "%"}, {"measurement": "% of wounds healed", "setting": "7.0% bacitracin zinc, day 3 after wounding", "result": 40, "unit": "%"}, {"measurement": "% of wounds healed", "setting": "7.0% bacitracin zinc, day 4 after wounding", "result": 70, "unit": "%"}, {"measurement": "% of wounds healed", "setting": "7.0% bacitracin zinc, day 5 after wounding", "result": 96, "unit": "%"}, {"measurement": "% of wounds healed", "setting": "7.0% bacitracin zinc, day 6 after wounding", "result": 100, "unit": "%"}, {"measurement": "% of wounds healed", "setting": "7.0% bacitracin zinc, day 7 after wounding", "result": 100, "unit": "%"}, {"measurement": "% of wounds healed", "setting": "7.5% bacitracin zinc, day 2 after wounding", "result": 0, "unit": "%"}, {"measurement": "% of wounds healed", "setting": "7.5% bacitracin zinc, day 3 after wounding", "result": 38, "unit": "%"}, {"measurement": "% of wounds healed", "setting": "7.5% bacitracin zinc, day 4 after wounding", "result": 68, "unit": "%"}, {"measurement": "% of wounds healed", "setting": "7.5% bacitracin zinc, day 5 after wounding", "result": 92, "unit": "%"}, {"measurement": "% of wounds healed", "setting": "7.5% bacitracin zinc, day 6 after wounding", "result": 98, "unit": "%"}, {"measurement": "% of wounds healed", "setting": "7.5% bacitracin zinc, day 7 after wounding", "result": 100, "unit": "%"}, {"measurement": "% of wounds healed", "setting": "8.0% bacitracin zinc, day 2 after wounding", "result": 0, "unit": "%"}, {"measurement": "% of wounds healed", "setting": "8.0% bacitracin zinc, day 3 after wounding", "result": 12, "unit": "%"}, {"measurement": "% of wounds healed", "setting": "8.0% bacitracin zinc, day 4 after wounding", "result": 59, "unit": "%"}, {"measurement": "% of wounds healed", "setting": "8.0% bacitracin zinc, day 5 after wounding", "result": 75, "unit": "%"}, {"measurement": "% of wounds healed", "setting": "8.0% bacitracin zinc, day 6 after wounding", "result": 90, "unit": "%"}, {"measurement": "% of wounds healed", "setting": "8.0% bacitracin zinc, day 7 after wounding", "result": 100, "unit": "%"}, {"measurement": "% of wounds healed", "setting": "9.0% bacitracin zinc, day 2 after wounding", "result": 0, "unit": "%"}, {"measurement": "% of wounds healed", "setting": "9.0% bacitracin zinc, day 3 after wounding", "result": 4, "unit": "%"}, {"measurement": "% of wounds healed", "setting": "9.0% bacitracin zinc, day 4 after wounding", "result": 33, "unit": "%"}, {"measurement": "% of wounds healed", "setting": "9.0% bacitracin zinc, day 5 after wounding", "result": 66, "unit": "%"}, {"measurement": "% of wounds healed", "setting": "9.0% bacitracin zinc, day 6 after wounding", "result": 90, "unit": "%"}, {"measurement": "% of wounds healed", "setting": "9.0% bacitracin zinc, day 7 after wounding", "result": 100, "unit": "%"}, {"measurement": "promoting epidermal resurfacing", "setting": "applied in an ointment base at concentrations of about 5% to 8%", "result": "effective agent for promoting epidermal resurfacing"}, {"measurement": "enhancement of healing", "setting": "concentration of 4%", "result": "some enhancement of healing is observed"}, {"measurement": "enhancement of healing", "setting": "higher concentrations, particularly in the range of 6.5%-7.5%", "result": "Preferred healing is observed"}]}]}
